The source of these data is article PMC4472782, “Antibacterial Characterization of Novel Synthetic Thiazole Compounds against Methicillin-Resistant Staphylococcus pseudintermedius” (PLoS ONE, 2015).

≈ marks a conversion by molar mass, not a printed value. Read-outs that look alike come from different tables or passages of the source.

In data set [1] the test system is methicillin-sensitive Staphylococcus pseudintermedius. In words: MIC by broth microdilution against MSSP clinical isolates. The data set is classed as cell-based. Particulars: nine MSSP isolates, triplicate. How it is done: (§1) Fifteen isolates of S. pseudintermedius (nine MSSP and six MRSP), identified at the Indiana Animal Disease Diagnostic Laboratory from specimens collected from dogs admitted to the small animal teaching hospital at Purdue University, were included in the study. The specimens were not collected specifically for this research study but were obtained from patients admitted to the hospital for treatment. Clinical specimens were inoculated onto 5% sheep blood agar and incubated at 35°C for 18–24 hours. Standard methods including examination of colony morphology and hemolysis and biochemical tests such as tube coagulase, Voges-Proskauer (VP) and fermentation tests for maltose, trehalose and lactose, were used in addition to matrix-assisted laser desorption ionization time of flight mass spectrometry to identify isolates. Antimicrobial susceptibility was determined by broth microdilution using the SensiTitre (Thermofisher Scientific).
(§2) Bacteria were prepared in phosphate-buffered saline (PBS) until a McFarland standard of 0.5 was achieved. The solution was subsequently diluted 1:300 in Mueller-Hinton broth (MHB) to reach a starting inoculum of 1 × 10^5 colony-forming units (CFU/mL). Bacteria were then transferred to a 96-well microtiter plate. Thiazole compounds and antibiotics were added (in triplicate) to wells in the first row of the microtiter plate and then serially diluted along the vertical axis. […] The MIC was categorized as the concentration where there was no visible growth of bacteria observed.

The subject of data set [2] is methicillin-resistant Staphylococcus pseudintermedius. Put plainly: MIC by broth microdilution against MRSP clinical isolates. The data set is classed as cell-based. As to conditions: six MRSP isolates, triplicate. How it is done: as §1, §2
For orientation: In broth dilution the organism is exposed to a series of concentrations in liquid medium.

Data set [3] has as its system methicillin-sensitive Staphylococcus pseudintermedius. In words: MBC determination against MSSP clinical isolates. As to conditions: nine MSSP isolates. The data set is classed as cell-based. How it is done: (§3) The MBC was determined by plating 5 μL from wells on the 96-well microtiter plate (where the MIC was determined) where no growth was observed onto Tryptic soy agar (TSA) plates. […] The MBC was categorized as the concentration where ≥99% reduction in bacterial cell count was observed.

Data set [4] relates to methicillin-resistant Staphylococcus pseudintermedius. In words: MBC determination against MRSP clinical isolates. The format is cell-based. As to conditions: six MRSP isolates. How it is done: as §3
The test system of the next data set is MRSP (SP3). In words: Multi-step resistance selection. The format is cell-based, Staphylococcus pseudintermedius. How it is done: To assess the ability of MRSP to develop resistance to the thiazole compounds, a multi-step resistance selection experiment was performed, as described elsewhere. The broth microdilution method for MIC determination against a clinical isolate of MRSP (SP3) was repeated for ten passages over a period of ten days. The initial inoculum was prepared to a McFarland standard of 0.5. The solution was subsequently diluted 1:300 in MHB to reach a starting inoculum of 1 × 10^5 CFU/mL. For each subsequent passage, the inoculum for the MIC determination was adjusted to a final density of approximately 5 × 10^5 CFU/mL using the contents of a well containing a subinhibitory concentration of the compound (where bacterial growth was observed from the previous passage). Bacteria were then transferred to a new 96-well microtiter plate.

For data set [5], the system named is MRSP SP3. In words: Checkerboard assay of thiazole compounds with oxacillin. The data set is classed as cell-based, Staphylococcus pseudintermedius. How it is done:
The relationship between the thiazole compounds and oxacillin was assessed via a standard checkerboard assay. Bacteria (MRSP SP3) equivalent to a McFarland standard of 0.5 were prepared in PBS. The bacteria were next diluted in MHB to achieve a starting cell density of 1 × 10^5 CFU/mL. MHB was transferred to all wells of a 96-well microtiter plate. […] Oxacillin was serially diluted along the abscissa of the microtiter plate while the thiazole compound was serially diluted along the ordinate. The plate was incubated for 22–24 hours at 37°C. The MIC of the test compound in combination with oxacillin was determined as the lowest concentration of each compound/antibiotic where no visible growth of bacteria was observed. The fractional inhibitory concentration index (ƩFIC) was calculated for each combination as described previously. A synergistic relationship was classified as an FIC index less than or equal to 0.5. […]

Data set [6] is described as follows: Microsomal stability analysis in dog liver microsomes. As to conditions: pH 7.4, dog liver microsomes. The format is in vitro ADME. How it is done: The reaction contained microsomal protein in 100 mM potassium phosphate, 2 mM NADPH, 3 mM MgCl2, pH 7.4. A control was run for each test agent omitting NADPH to detect NADPH-free degradation. At 0, 10, 20, 40, and 60 minutes, an aliquot was removed from each experimental and control reaction and mixed with an equal volume of ice-cold Stop Solution (methanol containing haloperidol, diclofenac, or other internal standard). Stopped reactions were incubated at least 10 minutes at -20°C, and an additional volume of water was subsequently added. The samples were centrifuged to remove precipitated protein, and the supernatants were analyzed by LC/MS/MS to quantitate the remaining parent. Data were converted to % remaining by dividing by the time zero concentration value. Data were then fitted to a first-order decay model to determine half-life. Intrinsic clearance was calculated from the half-life and the protein concentrations, as has been described elsewhere.
(In general: Microsomes from liver hold many membrane-bound enzymes, among them those of drug oxidation.)

The test system of data set [7] is MRSP SP3. In words: Post-antibiotic effect against MRSP. The data set is classed as cell-based, Staphylococcus pseudintermedius. As to conditions: 4 × MIC for one hour. How it is done: A tube containing untreated bacterial cells served as a control. Afterward, the compound/antibiotic was washed out by diluting bacteria 1:1000 in MHB. Counts of CFU for all cultures were obtained after washing. Aliquots (100 μL) of bacteria were removed every hour (for 10 hours), serially diluted in PBS, and plated on TSA plates. TSA plates were incubated for 20 hours at 37°C before CFU values were determined.

For data set [8] the following is noted: human liver microsomes; cited from earlier work.

`CCCCC#Cc1ccc(-c2nc(C)c(/C(C)=N/NC(=N)N)s2)cc1` [Compound 3]: the MIC50 in data set [1] (lowest concentration inhibiting growth in 50% of isolates) worked out at 0.71 µg/mL (≈ 2.01 µM); in data set [2] (Staphylococcus pseudintermedius, read-out: MIC50), 0.48 µg/mL (≈ 1.36 µM). Further, the MIC in data set [1] (read-out: MIC Range) was 0.18 to 0.94 µg/mL (≈ 0.509 to 2.66 µM); with MRSP (SP3) (Staphylococcus pseudintermedius, read-out: initial MIC) it was 1.41 µg/mL (≈ 3.99 µM). Further, the “MIC Range” value in data set [2] lay in the range of 0.18 to 1.41 µg/mL. Besides, the MBC came out at 0.71 µg/mL (≈ 2.01 µM) in data set [3] (Staphylococcus pseudintermedius, lowest concentration that killed 50% of isolates, read-out: MBC50) and 0.71 µg/mL (≈ 2.01 µM) in data set [4] (Staphylococcus pseudintermedius, read-out: MBC50). Further, the “MBC Range” value in data set [3] and in [4] was 0.18 to 1.41 µg/mL each time. In the data set on MRSP (SP3) (MRSP SP3, ten passages, resistance = greater than four-fold increase in initial MIC), the “development of resistance by MRSP” value was “not able to develop resistance”. Besides, the “shift in the MIC over ten passages” value with MRSP (SP3) (MRSP SP3, ten serial passages) was “no change”. In the data set on MRSP SP3 [5] (checkerboard assay), the relationship with oxacillin entry is recorded as “synergistic”. Besides, the ƩFIC in the data set on MRSP SP3 [5] (combination with oxacillin, ≤ 0.5 synergistic, > 0.5 to ≤ 4.0 indifference, > 4 antagonistic) is 0.38. The microsomal CLint turned out to be 6.6 µL/min/mg in [6] (NADPH omitted, read-out: NADPH-free CLint) and 18.7 µL/min/mg in data set [6] (with NADPH, duplicate, read-out: NADPH-dependent CLint). For the same compound, the half-life was 5.85 h in [6] (NADPH omitted, read-out: NADPH-free T1/2); 2.05 h in data set [6] (with NADPH, duplicate, read-out: NADPH-dependent T1/2); “more than 240 minutes” in [8]. The “Post-antibiotic Effect” value in the data set on MRSP SP3 [7] was above 9 h. For the same compound, the clearance rate in data set [8] was 3.7 µL/min/mg.

By MIC50 is commonly meant the lowest concentration that inhibits either 50% of growth or 50% of the strains tested, depending on the study. By MIC is commonly meant the least concentration at which growth counts as inhibited.
